In ChEMBL document CHEMBL3045833, “Synthesis and antifungal activity of novel 7-O-substituted pyridyl-4-methyl coumarin derivatives” (2013):
≈ marks a conversion by molar mass, not a printed value.

Tests used:
Type in all cases: functional
Aspergillus fumigatus = assay: Antifungal activity against Aspergillus fumigatus assessed as growth inhibition by NCCLS microbroth dilution method
Trichophyton rubrum = assay: Antifungal activity against Trichophyton rubrum assessed as growth inhibition by NCCLS microbroth dilution method
Cryptococcus neoformans = assay: Antifungal activity against Cryptococcus neoformans assessed as growth inhibition after 72 hr by NCCLS microbroth dilution method
Kluyveromyces marxianus = assay: Antifungal activity against Kluyveromyces marxianus assessed as growth inhibition by NCCLS microbroth dilution method
Candida parapsilosis = assay: Antifungal activity against Candida parapsilosis assessed as growth inhibition by NCCLS microbroth dilution method; settings: Lodderomyces parapsilosis
Candida tropicalis = assay: Antifungal activity against Candida tropicalis assessed as growth inhibition by NCCLS microbroth dilution method
Candida albicans [1] = assay: Antifungal activity against Candida albicans Y0109 assessed as growth inhibition after 24 hr by NCCLS microbroth dilution method; settings: Y0109, 24 h
Candida albicans [2] = assay: Antifungal activity against Candida albicans SC5314 assessed as growth inhibition after 24 hr by NCCLS microbroth dilution method; settings: SC5314, 24 h

Row | Compound | MIC80 (Aspergillus fumigatus) [µg/mL] | MIC80 (Trichophyton rubrum) [µg/mL] | MIC80 (Cryptococcus neoformans) [µg/mL] | MIC80 (Kluyveromyces marxianus) [µg/mL] | MIC80 (Candida parapsilosis) [µg/mL] | MIC80 (Candida tropicalis) [µg/mL] | MIC80 (Candida albicans [1]) [µg/mL] | MIC80 (Candida albicans [2]) [µg/mL]
1 | Cc1cc(=O)oc2cc(Oc3ccc(NC(=O)c4cccs4)cn3)ccc12 | > 64 | 16 | 32 (≈ 84.6 µM) | 32 | 32 | 16 | 16 (≈ 42.3 µM) | 32 (≈ 84.6 µM)
2 | Cc1cc(=O)oc2cc(Oc3ccc(NC(=O)Cc4c[nH]c5ccccc45)cn3)ccc12 | > 64 | 16 | 8 (≈ 18.8 µM) | > 64 | > 64 | > 64 | 64 (≈ 150 µM) | > 64
3 | Cc1cc(=O)oc2cc(Oc3ccc([N+](=O)[O-])cn3)ccc12 | > 64 | 64 | 64 (≈ 215 µM) | > 64 | 32 | > 64 | 64 (≈ 215 µM) | > 64
4 | Cc1cc(=O)oc2cc(Oc3ccc(N)cn3)ccc12 | > 64 | 32 | > 64 | > 64 | 32 | > 64 | 16 (≈ 59.6 µM) | > 64
5 | CC(=O)Nc1ccc(Oc2ccc3c(C)cc(=O)oc3c2)nc1 | > 64 | 16 | 8 (≈ 25.8 µM) | 16 | 1 | 8 | 1 (≈ 3.22 µM) | 0.25 (≈ 0.806 µM)
6 | Cc1cc(=O)oc2cc(Oc3ccc(NC(=O)C(F)(F)F)cn3)ccc12 | > 64 | 16 | 32 (≈ 87.8 µM) | 32 | 1 | 16 | 0.25 (≈ 0.686 µM) | 0.25 (≈ 0.686 µM)
7 | Cc1cc(=O)oc2cc(Oc3ccc(NC(=O)C(C)(C)C)cn3)ccc12 | > 64 | 1 | 32 (≈ 90.8 µM) | 16 | 32 | 32 | 4 (≈ 11.4 µM) | 4 (≈ 11.4 µM)
8 | Cc1cc(=O)oc2cc(Oc3ccc(NC(=O)CN(C)C)cn3)ccc12 | > 64 | 16 | 16 (≈ 45.3 µM) | 32 | 32 | 1 | 16 (≈ 45.3 µM) | 32 (≈ 90.6 µM)
9 | Cc1cc(=O)oc2cc(Oc3ccc(NC(=O)CC#N)cn3)ccc12 | > 64 | 0.25 | 16 (≈ 47.7 µM) | 16 | 4 | > 64 | 16 (≈ 47.7 µM) | 0.25 (≈ 0.746 µM)
10 | Cc1cc(=O)oc2cc(Oc3ccc(NC(=O)C4CC4)cn3)ccc12 | > 64 | 8 | 32 (≈ 95.1 µM) | 32 | 8 | 16 | > 64 | 16 (≈ 47.6 µM)
11 | Cc1cc(=O)oc2cc(Oc3ccc(NC(=O)C4CCCCC4)cn3)ccc12 | > 64 | 8 | 32 (≈ 84.6 µM) | > 64 | 4 | > 64 | > 64 | > 64
12 | Cc1cc(=O)oc2cc(Oc3ccc(NC(=O)c4ccccc4)cn3)ccc12 | > 64 | 8 | 16 (≈ 43 µM) | 32 | 1 | 16 | 4 (≈ 10.7 µM) | 16 (≈ 43 µM)
13 | Cc1cc(=O)oc2cc(Oc3ccc(NC(=O)c4ccccn4)cn3)ccc12 | > 64 | 16 | 32 (≈ 85.7 µM) | 16 | 32 | 16 | 16 (≈ 42.9 µM) | 16 (≈ 42.9 µM)
14 | Cc1cc(=O)oc2cc(Oc3ccc(NC(=O)c4cccnc4)cn3)ccc12 | > 64 | 32 | 16 (≈ 42.9 µM) | 16 | 32 | 32 | 32 (≈ 85.7 µM) | 32 (≈ 85.7 µM)
15 | Cc1cc(=O)oc2cc(Oc3ccc(NC(=O)c4ccncc4)cn3)ccc12 | > 64 | 32 | 32 (≈ 85.7 µM) | 8 | 0.25 | 16 | 16 (≈ 42.9 µM) | 16 (≈ 42.9 µM)
16 | Cc1cc(=O)oc2cc(Oc3ccc(NC(=O)c4ccco4)cn3)ccc12 | > 64 | 16 | > 64 | 16 | > 64 | 8 | 16 (≈ 44.2 µM) | 32 (≈ 88.3 µM)
17 | Cc1cc(=O)oc2cc(Oc3ccc(NC(=O)c4cnccn4)cn3)ccc12 | > 64 | 0.25 | 1 (≈ 2.67 µM) | 16 | 32 | 1 | 4 (≈ 10.7 µM) | 4 (≈ 10.7 µM)
18 | Cc1cnc(C(=O)Nc2ccc(Oc3ccc4c(C)cc(=O)oc4c3)nc2)cn1 | > 64 | 16 | 4 (≈ 10.3 µM) | 4 | > 64 | 1 | 16 (≈ 41.2 µM) | 16 (≈ 41.2 µM)
19 | Cc1cc(=O)oc2cc(Oc3ccc(NC(=O)Cc4ccccc4)cn3)ccc12 | > 64 | > 64 | > 64 | > 64 | > 64 | > 64 | > 64 | > 64
20 | Cc1cc(=O)oc2cc(Oc3ccc(NC(=O)/C=C/c4ccccc4)cn3)ccc12 | > 64 | 4 | > 64 | 16 | > 64 | > 64 | > 64 | > 64
21 | C[C@@H]1[C@H](O)[C@@H](C)/C=C/C=C/C=C/C=C/C=C/C=C/C=C/[C@H](O[C@@H]2O[C@H](C)[C@@H](O)[C@H](N)[C@@H]2O)C[C@@H]2O[C@](O)(C[C@@H](O)C[C@@H](O)[C@H](O)CC[C@@H](O)C[C@@H](O)CC(=O)O[C@H]1C)C[C@H](O)[C@H]2C(=O)O [AMPHOTERICIN B] | 1 | 1 | 1 (≈ 1.08 µM) | 0.25 | 1 | 1 | 0.25 (≈ 0.271 µM) | 0.25 (≈ 0.271 µM)
22 | OC(Cn1cncn1)(Cn1cncn1)c1ccc(F)cc1F [FLUCONAZOLE] | > 64 | 1 | 4 (≈ 13.1 µM) | 4 | 4 | 4 | 0.25 (≈ 0.816 µM) | 0.25 (≈ 0.816 µM)
23 | Cc1cc(=O)oc2cc(O)ccc12 [HYMECROMONE] | > 64 | 32 | > 64 | > 64 | 32 | > 64 | > 64 | > 64
